According to patent publication US10576085B2, “Substituted aminopurine compounds, compositions thereof, and methods of treatment therewith” (Signal Pharmaceuticals, LLC, priority 2016, dated 2020):

Test system: cancer cell lines of Table 2
Test: Multiplexed cytotoxicity assay: apoptosis (activated caspase-3; Cal_X2, Cal_X5, Max_Fold_Change)
Assay type: cell-based
Protocol: Cells are grown in RPMI1640, 10% FBS, 2 mM L-alanyl-L-Glutamine, 1 mM Na pyruvate or a special medium in a humidified atmosphere of 5% CO2 at 37° C. Cells are seeded into 384-well plates and incubated in a humidified atmosphere of 5% CO2 at 37° C. Compounds are added 24 h post cell seeding. At the same time, a time zero untreated cell plate is generated. After a 72 hour incubation period, cells are fixed and stained with fluorescently labeled antibodies and nuclear dye to allow visualization of nuclei, apoptotic cells and mitotic cells. Apoptotic cells are detected using an anti-active caspase-3 antibody. Mitotic cells are detected using an anti phospho-histone-3 antibody. Compounds are serially diluted 3.16-fold and assayed over 10 concentrations in a final assay concentration of 0.1% DMSO from the highest test concentration of 10 μM. Automated fluorescence microscopy was carried out using a Molecular Devices ImageXpress Micro XL high-content imager, and images are collected with a 4× objective.
The activated caspase-3 marker labels cells from early to late stage apoptosis. Concentrations of test compound that cause a 5-fold induction in the caspase-3 signal (Cal_X5) indicate significant apoptosis induction. The maximal induction of caspase 3 by compound in comparison with DMSO control is reported as Max_Fold_Change.
In Another Experiment, Cells were Grown in RPMI1640, 10% FBS, 2 mM L-alanyl-L-Glutamine, 1 mM Na pyruvate or a special medium in a humidified atmosphere of 5% CO2 at 37° C. Cells were seeded into 384-well plates and incubated in a humidified atmosphere of 5% CO2 at 37° C. Compounds were added 24 h post cell seeding. At the same time, a time zero untreated cell plate was generated. After a 72 hour incubation period, cells were fixed and stained with fluorescently labeled antibodies and nuclear dye to allow visualization of nuclei, apoptotic cells and mitotic cells. Apoptotic cells were detected using an anti-active caspase-3 antibody. Mitotic cells were detected using an anti phospho-histone-3 antibody. Compounds were serially diluted 3.16-fold and assayed over 10 concentrations in a final assay concentration of 0.1% DMSO from the highest test concentration of 10 μM. Automated fluorescence microscopy was carried out using a Molecular Devices ImageXpress Micro XL high-content imager, and images were collected with a 4× objective.
The activated caspase-3 marker labels cells from early to late stage apoptosis. Concentrations of test compound that cause a 2-fold (Cal-X2) or 5-fold induction in the caspase-3 signal (Cal_X5) indicated significant apoptosis induction. The maximal induction of caspase 3 by compound in comparison with DMSO control was reported as Max_Fold_Change.

In the case of `C[C@]1(C(N)=O)CC[C@@H](n2c(Nc3c(Cl)cc(Cl)cc3Cl)nc3cnc(N[C@@H]4CCOC[C@H]4F)nc32)CC1` [Compound 1, cis-4-[2-{[(3S,4R)-3-fluorooxan-4-yl]amino}-8-(2,4,6-trichloroanilino)-9H-purin-9-yl]-1-methyl cyclohexane-1-carboxamide], the CalX2 (HS611T, Lymphoma) is reported as 2.8507 µM, the CalX5 (HS611T, Lymphoma) is reported as 10 µM and the Max fold change (HS611T, Lymphoma) is reported as 3.84. For the same compound, the CalX2 (HS688AT, Skin, Melanoma) was 10 µM, the CalX5 (HS688AT, Skin, Melanoma) was 10 µM and the Max fold change (HS688AT, Skin, Melanoma) was 1.61. The CalX2 (HS695T, Skin, Melanoma) was 0.0253 µM, the CalX5 (HS695T, Skin, Melanoma) was 0.0727 µM and the Max fold change (HS695T, Skin, Melanoma) was 22.05. The CalX2 (HS852T, Skin, Melanoma) was 0.05 µM, the CalX5 (HS852T, Skin, Melanoma) was 0.234 µM and the Max fold change (HS852T, Skin, Melanoma) was 6.51. The CalX2 (HT1197, Bladder) was 0.1601 µM, the CalX5 (HT1197, Bladder) was 10 µM and the Max fold change (HT1197, Bladder) was 4.16. It also gave a CalX2 (HT1376, Bladder) of 0.0524 µM, a CalX5 (HT1376, Bladder) of 0.167 µM and a Max fold change (HT1376, Bladder) of 10.87. For the same compound, the CalX2 (HT, Lymphoma) was 8.6354 µM, the CalX5 (HT, Lymphoma) was 10 µM and the Max fold change (HT, Lymphoma) was 2.44. It also gave a CalX2 (HUCCT1, Liver) of 0.0222 µM, a CalX5 (HUCCT1, Liver) of 0.0406 µM and a Max fold change (HUCCT1, Liver) of 11.54. For the same compound, the CalX2 (HUH6CLONE5, Liver) was 0.0631 µM, the CalX5 (HUH6CLONE5, Liver) was 0.302 µM and the Max fold change (HUH6CLONE5, Liver) was 8.25. It also gave a CalX2 (J82, Bladder) of 2.4365 µM, a CalX5 (J82, Bladder) of 10 µM and a Max fold change (J82, Bladder) of 3.17. The CalX2 (JEKO1, Lymphoma) was 4.3369 µM, the CalX5 (JEKO1, Lymphoma) was 10 µM and the Max fold change (JEKO1, Lymphoma) was 3.11. The CalX2 (JIYOYE, Lymphoma) was 4.4004 µM, the CalX5 (JIYOYE, Lymphoma) was 5.35 µM and the Max fold change (JIYOYE, Lymphoma) was 11.1. The CalX2 (JRT3T35, Leukemia) was 2.6364 µM, the CalX5 (JRT3T35, Leukemia) was 3.8 µM and the Max fold change (JRT3T35, Leukemia) was 14.26. The CalX2 (JURKAT, Leukemia) was 1.6173 µM, the CalX5 (JURKAT, Leukemia) was 3.28 µM and the Max fold change (JURKAT, Leukemia) was 14.48. For the same compound, the CalX2 (K562, Leukemia) was 2.9298 µM, the CalX5 (K562, Leukemia) was 4.86 µM and the Max fold change (K562, Leukemia) was 51.89. The CalX2 (KG1, Leukemia) was 2.5811 µM, the CalX5 (KG1, Leukemia) was 10 µM and the Max fold change (KG1, Leukemia) was 2.5. It also gave a CalX2 (KU812, Leukemia) of 0.03 µM, a CalX5 (KU812, Leukemia) of 8.02 µM and a Max fold change (KU812, Leukemia) of 5.63. It also gave a CalX2 (L428, Lymphoma) of 4.2384 µM, a CalX5 (L428, Lymphoma) of 5.88 µM and a Max fold change (L428, Lymphoma) of 7.51. For the same compound, the CalX2 (MC116, Lymphoma) was 2.8763 µM, the CalX5 (MC116, Lymphoma) was 5.18 µM and the Max fold change (MC116, Lymphoma) was 9.46. The CalX2 (MEG01, Leukemia) was 0.5718 µM, the CalX5 (MEG01, Leukemia) was 10 µM and the Max fold change (MEG01, Leukemia) was 2.77. It also gave a CalX2 (MHHPREB1, Leukemia) of 5.1142 µM, a CalX5 (MHHPREB1, Leukemia) of 7.66 µM and a Max fold change (MHHPREB1, Leukemia) of 11.43. It also gave a CalX2 (MOLT3, Leukemia) of 5.88 µM, a CalX5 (MOLT3, Leukemia) of 10 µM and a Max fold change (MOLT3, Leukemia) of 3.63. It also gave a CalX2 (MOLT16, Leukemia) of 2.4102 µM, a CalX5 (MOLT16, Leukemia) of 4.97 µM and a Max fold change (MOLT16, Leukemia) of 8.06. For the same compound, the CalX2 (MV411, Leukemia) was 0.0933 µM, the CalX5 (MV411, Leukemia) was 1.15 µM and the Max fold change (MV411, Leukemia) was 8.12. It also gave a CalX2 (MX1, Leukemia) of 1.1016 µM, a CalX5 (MX1, Leukemia) of 10 µM and a Max fold change (MX1, Leukemia) of 3.78. The CalX2 (NALM6, Leukemia) was 0.1241 µM, the CalX5 (NALM6, Leukemia) was 10 µM and the Max fold change (NALM6, Leukemia) was 5. For the same compound, the CalX2 (NAMALWA, Lymphoma) was 5.9431 µM, the CalX5 (NAMALWA, Lymphoma) was 10 µM and the Max fold change (NAMALWA, Lymphoma) was 2.68. For the same compound, the CalX2 (OCUG1, Liver) was 0.0848 µM, the CalX5 (OCUG1, Liver) was 0.49 µM and the Max fold change (OCUG1, Liver) was 5.49. It also gave a CalX2 (RAJI, Lymphoma) of 2.5564 µM, a CalX5 (RAJI, Lymphoma) of 4.07 µM and a Max fold change (RAJI, Lymphoma) of 24.81. The CalX2 (RAMOSRA1, Lymphoma) was 4.5496 µM, the CalX5 (RAMOSRA1, Lymphoma) was 7.39 µM and the Max fold change (RAMOSRA1, Lymphoma) was 25.1. For the same compound, the CalX2 (REC1, Lymphoma) was 10 µM, the CalX5 (REC1, Lymphoma) was 10 µM and the Max fold change (REC1, Lymphoma) was 1.86. For the same compound, the CalX2 (RPMI6666, Lymphoma) was 3.0419 µM, the CalX5 (RPMI6666, Lymphoma) was 4.37 µM and the Max fold change (RPMI6666, Lymphoma) was 26.35. The CalX2 (RS411, Leukemia) was 3.8025 µM, the CalX5 (RS411, Leukemia) was 8.4 µM and the Max fold change (RS411, Leukemia) was 5.83. The CalX2 (SCABER, Bladder) was 0.0086 µM, the CalX5 (SCABER, Bladder) was 0.0506 µM and the Max fold change (SCABER, Bladder) was 29.47. The CalX2 (SCC9, Head and Neck) was 0.6679 µM, the CalX5 (SCC9, Head and Neck) was 3.86 µM and the Max fold change (SCC9, Head and Neck) was 9.58. It also gave a CalX2 (SKNEP1, Kidney) of 10 µM, a CalX5 (SKNEP1, Kidney) of 10 µM and a Max fold change (SKNEP1, Kidney) of 1.15. It also gave a CalX2 (SNU423, Liver) of 0.0909 µM, a CalX5 (SNU423, Liver) of 1.65 µM and a Max fold change (SNU423, Liver) of 7.32. It also gave a CalX2 (SR, Lymphoma) of 1.2842 µM, a CalX5 (SR, Lymphoma) of 3.07 µM and a Max fold change (SR, Lymphoma) of 33.52. The CalX2 (ST486, Lymphoma) was 4.2422 µM, the CalX5 (ST486, Lymphoma) was 6.11 µM and the Max fold change (ST486, Lymphoma) was 10.85. For the same compound, the CalX2 (SUDHL4, Lymphoma) was 2.5668 µM, the CalX5 (SUDHL4, Lymphoma) was 4.83 µM and the Max fold change (SUDHL4, Lymphoma) was 10.75. The CalX2 (SUDHL5, Lymphoma) was 1.6359 µM, the CalX5 (SUDHL5, Lymphoma) was 4.54 µM and the Max fold change (SUDHL5, Lymphoma) was 10.37. The CalX2 (SUDHL8, Lymphoma) was 1.2344 µM, the CalX5 (SUDHL8, Lymphoma) was 4.19 µM and the Max fold change (SUDHL8, Lymphoma) was 10.79. For the same compound, the CalX2 (SUDHL10, Lymphoma) was 3.611 µM, the CalX5 (SUDHL10, Lymphoma) was 4.87 µM and the Max fold change (SUDHL10, Lymphoma) was 11.63. It also gave a CalX2 (SUPT1, Lymphoma) of 4.5476 µM, a CalX5 (SUPT1, Lymphoma) of 9.21 µM and a Max fold change (SUPT1, Lymphoma) of 5.76. For the same compound, the CalX2 (T24, Bladder) was 4.5443 µM, the CalX5 (T24, Bladder) was 10 µM and the Max fold change (T24, Bladder) was 2.61. For the same compound, the CalX2 (TCCSUP, Bladder) was 5.6435 µM, the CalX5 (TCCSUP, Bladder) was 10 µM and the Max fold change (TCCSUP, Bladder) was 3.67. For the same compound, the CalX2 (TF1, Leukemia) was 0.006 µM, the CalX5 (TF1, Leukemia) was 0.0296 µM and the Max fold change (TF1, Leukemia) was 16.1. It also gave a CalX2 (THP1, Leukemia) of 0.132 µM, a CalX5 (THP1, Leukemia) of 3.9 µM and a Max fold change (THP1, Leukemia) of 6.3. For the same compound, the CalX2 (TUR, Lymphoma) was 0.6984 µM, the CalX5 (TUR, Lymphoma) was 3.45 µM and the Max fold change (TUR, Lymphoma) was 17.35. For the same compound, the CalX2 (UMUC3, Bladder) was 2.7934 µM, the CalX5 (UMUC3, Bladder) was 5.76 µM and the Max fold change (UMUC3, Bladder) was 6.56. The Induction of apoptosis (variety of cancer cell lines) was “induce apoptosis”.
